The values that follow come from patent US8247552B2, “Analogs of dehydrophenylahistins and their therapeutic use” (Nereus Pharmaceuticals, Inc., priority 2002, dated 2012).

SMILES strings stand for the structures. Like-named read-outs stand apart in the source and are kept apart here. A value given as a limit tells only on which side of the number the result lay.

The test system of one series is HuVEC cells. Nature of the series: Microtubule (tubulin) depolymerization, α-tubulin staining.
Series [1] concerns MCF7 cells (GFP-alpha-tubulin). The series is described as follows: Microtubule dynamic instability in living MCF7 cells (time-lapse microscopy). Format: cell-based, human. The settings on record: concentrations effecting 25% or 50% of maximal mitotic block.
Series [2] deals with P22 rat sarcoma tumor blood flow. Nature of the series: Blood flow in the P22 rat sarcoma model with 125I-IAP. The settings on record: 15 mg/kg IP. It is filed as in vivo. The procedure:
In contrast, blood flow in non-tumor tissues was affected to a much lesser extent at 1 hour (see FIG. 35).

Series [3] has as its system N202 mammary tumor vasculature. The series is described as follows: Murine syngeneic pseudo-orthotopic breast cancer model, dorsal skinflap chamber, vascular targeting. An excerpt:
A murine syngeneic “pseudo-orthotopic” breast cancer model was used to address these issues. […] To create the “pseudo-orthotopic milieu,” the coverslip of a dorsal skinflap chamber was removed and small pieces of mammary fatpad from donor mice were implanted into the chamber. On top of the fatpad graft, tumor spheroids containing N202 mammary tumor cells transduced with Histone (H2B)-green fluorescent protein (GFP) were applied. The use of H2B-GFP transduced cells allows for visualizing tumor growth and monitoring mitosis and apoptosis.
Fluorescence video microscopy allows for the relatively non-invasive study of tumor microcirculation in conscious mice.
Tumor area, blood flow rate, and vascular density within and surrounding the tumor were visualized. Real-time observations were recorded at various time-points using still photos and video microscopy.

For another series, the system named is P22 rat sarcoma. The series is described as follows: Tumor necrosis in the P22 rat sarcoma model. The settings on record: 7.5 and 15 mg/kg IP, 24 hours post-dose. Format: in vivo. An excerpt:
“A dose-escalation study of the novel vascular-targeting agent, ZD6126, in patients with solid tumors,” Proc Am Soc Clin Oncol 2002; 21:abstract 438; each of which is hereby incorporated by reference in its entirety.

The next series has as its system HuVEC monolayer. Nature of the series: HuVEC monolayer permeability to FITC-Dextran. Format: cell-based, human.
Series [4] deals with MES-SA/Dx5 (Taxol resistant) human uterine sarcoma. The series is described as follows: Cytotoxicity / growth inhibition in multidrug resistant uterine sarcoma cells. Format: cell-based. The settings on record: for IC50: Table 13, III. The method, then: 1) Human Uterine Sarcoma Tumor Cell Line Pair: MES-SA (Taxol Sensitive) and MES-SA/Dx5 (Taxol Resistant).
HL-60 and HL-60/MX2 cells were both seeded at 5×10^4 cells/well in 90 μl complete media into 96 well plates on the day of compound addition. […] Ten μl volumes of the 10× serial dilutions were added to the test wells in triplicate and the plates returned to the incubator for 48 hours.
Resazurin dye in medium without cells was used to determine the background, which was subtracted from the data for all experimental wells.
The multidrug resistant MES-SA/Dx5 tumor cell line was derived from the human uterine sarcoma MES-SA tumor cell line and expresses elevated P-Glycoprotein (P-gp), an ATP dependent efflux pump. […] Paclitaxel, a known substrate of the P-gp pump was included as a control.

Series [5] relates to Trichophyton mentagrophytes. Nature of the series: Antifungal susceptibility testing (NCCLS M38-A), MIC/MFC. It is filed as cell-based. The method, then: Specifically, disclosed compounds were evaluated alongside commercially available microtubulin inhibitors as well as recognized antifungal agents. […].
(§1) Microorganisms against which these compounds were tested included: Candida albicans, Candida glabrata, Aspergillus fumigatus, Trichophyton rubrum, Trichophyton mentagrophytes, Epidermophyton floccosum. With the exception of Candida glabrata (one isolate), two isolates of each species were tested.
Drug concentrations were 0.03-16 μg/ml for the investigational compounds, 0.015-8 μg/ml for itraconazole and griseofulvin.
The minimum lethal concentration (MLC) was determined by plating […] from the MIC concentration and each concentration above the MIC. […] When a MIC was obtained, a minimum fungicidal concentration (MFC) was determined to assess the fungistatic/fungicidal nature of the compound. […] The compound is scored as fungistatic if the cells are able to resume growth and fungicidal if no regrowth is possible because the compound had killed the organisms.

The test system of series [6] is Jurkat cells (human T cell leukemia line). Nature of the series: DNA fragmentation (DNA laddering) by gel electrophoresis. It is filed as cell-based. An excerpt:
A late stage characteristic of apoptosis is internucleosomal DNA cleavage that results in a distinctive ladder pattern that can be visualized by gel electrophoresis.

In series [7] the test system is PC-3 prostatic adenocarcinoma cells. Nature of the series: Tumor cytotoxicity assay, resazurin fluorescence, 48 h. The settings on record: Homo sapiens, Table 1. Format: cell-based.
Experimental: 10× concentrated serial dilutions of the two compounds were prepared in appropriate culture medium for final concentrations ranging from 2.0×10^−5 M to 2.0×10^−10 M. Ten μl volumes of the 10× serial dilutions were added to the test wells in triplicate and the plates returned to the incubator for 48 hours.
Resazurin dye without cells was used to determine the background, which was subtracted from the data for all experimental wells. The data were analyzed using Prism software (GraphPad Software).
PC-3, a human prostate adenocarcinoma, was maintained in F12K complete medium (F12K medium supplemented with 10% FBS; 2 mM Glutamine; 1% HEPES; and Pen/Strep at 100 IU/ml and 100 μg/ml, respectively).
20 mM stock solutions of compounds were prepared in 100% DMSO and stored at −80° C. […] Ten μl volumes of the 10× serial dilutions were added to the test wells in triplicate and the plates returned to the incubator for 48 hours.
For another series, the system named is Trichophyton rubrum. The series is described as follows: Antifungal susceptibility testing (NCCLS M38-A), MIC/MFC. Format: cell-based. The procedure:
Specifically, disclosed compounds were evaluated alongside commercially available microtubulin inhibitors as well as recognized antifungal agents.
as §1
The minimum lethal concentration (MLC) was determined by plating […] from the MIC concentration and each concentration above the MIC. […] When a MIC was obtained, a minimum fungicidal concentration (MFC) was determined to assess the fungistatic/fungicidal nature of the compound.

Series [8] can be described thus: Physicochemical stability, Z to E migration under light. The settings on record: visible light, normal room light. The method, then: The physicochemical stability is one of the unfavorable problems of dehydroPLH. In phenylahistin, since there is no additional olefin structure at the benzyl part, there is no such problem. […] In the cytotoxic assay, some of the compounds migrate to E-form during the incubation, although this migration probably equilibrates at the 1:1 ratio in the case of dehydroPLH. This migration can be controlled.

Experimental for HuVEC cells: The plates were returned to the incubator for 2 days.
20 mM stock solutions of compounds were prepared in 100% DMSO and stored at −80° C. 400× concentrated dilutions of the compounds were prepared in 100% DMSO. 5 μl volumes of the dilutions were added to individual wells resulting in a final concentration of 20 nM. […] The plates were returned to the incubator for 30 minutes.
The cells were rinsed in dPBS before fixation in 10% (v/v) neutral buffered formalin for 10 minutes at room temperature. Following fixation, α-tubulin was visualized by indirect immunofluorescence. Specifically, the cells were permeabilized in 0.2% (v/v) triton X-100/dPBS for 10 minutes. The cells were washed prior to transferring the coverslips to a humidified chamber, the coverslips were blocked for two hours in antibody buffer [2% (w/v) BSA/0.1% (v/v) Tween 20/dPBS]. The coverslips were incubated with 50 μl of 0.1 μg/ml mouse α-tubulin (Molecular Probes) in antibody buffer for 1 hour before washing and incubation with 50 μl of 1 μg/ml goat anti-mouse FITC (Jackson ImmunoResearch Laboratories) for one hour in the dark. Finally, the cells were washed and treated with 2 μg/ml DAPI (Molecular Probes) for 10 minutes before rinsing in H2O and mounting with Vectashield (Vector Labs) mounting media. The cells were imaged using a 60× oil immersion objective on an upright microscope (Olympus BX51). The images were digitally captured using a CCD camera and Magnafire 2.0 software (Olympus). Post image processing was performed in Photoshop Elements 2.0 (Adobe) and in Microsoft Powerpoint.
Human umbilical vein endothelial cells (HuVECs; Cambrex CC2519A) were maintained at subconfluent densities in EGM-2 (Cambrex) media. […] The plates were returned to the incubator for 2 days.
Stock (20 mM) solutions of the test compounds were prepared in 100% DMSO. 400× concentrated dilutions of the compounds were prepared in 100% DMSO. 5 μl volumes of the dilutions were added to individual wells resulting in a final concentration of 200 nM. […] The plates were returned to the incubator for 30 minutes.
The cells were rinsed in dPBS before fixation in 10% (v/v) neutral buffered formalin for 10 minutes at room temperature. Following fixation, α-tubulin was visualized by indirect immunofluorescence. Specifically, the cells were permeabilized in 0.2% (v/v) triton X-100/dPBS for 10 minutes. The cells were washed prior to transferring the coverslips to a humidified chamber, the coverslips were blocked for two hours in antibody buffer (2% (w/v) BSA/0.1% (v/v) Tween 20/dPBS). The coverslips were incubated with 50 μl of 0.1 μg/ml mouse α-tubulin (Molecular Probes) in antibody buffer for 1 hour before washing and incubation with 50 μl of 1 μg/ml goat anti-mouse FITC (Jackson ImmunoResearch Laboratories) for one hour in the dark. Finally, the cells were washed and treated with 2 μg/ml DAPI (Molecular Probes) for 10 minutes before rinsing in H2O and mounting with Vectashield (Vector Labs) mounting media. The cells were imaged using a 60× oil immersion objective on an upright microscope (Olympus BX51). The images were digitally captured using a CCD camera and Magnafire 2.0 software (Olympus). Post image processing was performed in Photoshop Elements 2.0 (Adobe) and in Microsoft Powerpoint.
Experimental for HuVEC monolayer: The enhanced permeability of HuVEC cells to a fluorescent-labeled dextran is used as a proxy assay for vascular collapse.
Human umbilical vein endothelial cells (HuVECs; Cambrex CC2519A) were maintained at subconfluent densities in EGM-2 (Cambrex) media. […] For monolayer permeability assays, HuVEC cells were seeded at 1×10^5 cells/ml in EGM-2 media on Fibronectin-coated 3.0 μm Fluoroblok inserts (Becton Dickinson) in 24-well plates. The plates were returned to the incubator for 4 days to allow the cells to reach confluency.
Stock solutions (20 mM) of the test compounds were prepared in 100% DMSO. 10× concentrated serial dilutions of the compounds were prepared in EGM-2. 10 μl volumes of the serial dilutions were added to the test inserts in duplicate resulting in final concentrations ranging from 2 μM to 2 nM.
The final concentration of FITC-Dextran was 1 mg/ml.

For `CC(C)(C)c1[nH]cnc1/C=c1\[nH]c(=O)/c(=C/c2ccccc2)[nH]c1=O` [KPU-02], the “tubulin depolymerization in HuVEC cells” value in the series on HuVEC cells (200 nM, 30 min) was “rapidly induce tubulin depolymerization”. Also, the “effect on MT dynamic instability” value in series [1] is “did not have a measurable effect on MT dynamic instability”. The “tumor blood flow, % of vehicle” value in [2] (1 hour after administration) worked out at 23%. For the same compound, the “tumor blood flow, % vehicle” value in series [2] (24 hours) worked out at 59%. The “tolerability” value in [3] (i.v. infusion 5-10 mg/kg) is recorded as “well tolerated”. Further, in series [3] (single i.v. treatment), the “effect on tumor vasculature” value is reported as “rapid collapse of the central vasculature”. The “tumor necrosis” value in the series with P22 rat sarcoma is on record as “dose-dependent tumor necrosis”.

`CC(=O)O[C@H]1C(=O)[C@@]2(C)[C@H]([C@H](OC(=O)c3ccccc3)[C@]3(O)C[C@H](OC(=O)[C@H](O)[C@@H](NC(=O)c4ccccc4)c4ccccc4)C(C)=C1C3(C)C)[C@]1(OC(C)=O)CO[C@@H]1C[C@@H]2O` [Taxol]: the “HuVEC monolayer permeability” value in the series with HuVEC monolayer was “inactive”. Also, in the series with HuVEC cells (2 μM, thirty minutes exposure), the “microtubule depolymerization in HuVEC cells” value is “did not induce microtubule depolymerization”. Besides, the “potency in resistant MES-SA/DX5 versus sensitive MES-SA line” value in series [4] is “virtually inactive”. The IC50 in [4] (cyclosporin A pretreatment, Study II, read-out: MES-SA/DX5 Resistant, CsA Pretreat, IC50 nM) is 40 nM; in series [4] (no cyclosporin A, Study I, II, read-out: MES-SA/DX5 Resistant, No CsA, IC50 nM) it was greater than 24000 nM.

With `C=CC(C)(C)c1[nH]cnc1/C=c1\[nH]c(=O)/c(=C/c2ccccc2)[nH]c1=O` [KPU-1, Dehydrophenylahistin], the “potency versus sensitive T. mentagrophytes isolate” value in series [5] is “weaker but more comparable to the others”. Moreover, the “DNA laddering, potency compared with KPU-2” value in series [6] is on record as “much less potent”. In series [7], a half-maximal response (EC50) required 5.4 nM. For the same compound, the “potency versus T. rubrum” value in the series with Trichophyton rubrum is “significantly less potent than the other compounds”.

Regarding `C=CC(C)(C)c1[nH]cnc1/C=c1\[nH]c(=O)/c(=C/c2ccccc2)[nH]c1=O` [dehydroPLH, dehydrophenylahistin], the “Z to E migration” value in [8] is recorded as “Z to E migration frequently occurs”.
